Measured values: patent US9163015B2, “Pyrazolopyridine, pyrarolopyrazine, pyrazolopyrimidine, pyrazolothiophene and pyrazolothiazole compounds as MGLUR4 allosteric potentiators, compositions, and methods of treating neurological dysfunction” (Vanderbilt University, priority 2010, dated 2015)

These molecules were tested against human mGluR4 (Homo sapiens (Human), UniProt Q14833) (assay: mGluR4 potentiation assay, CHO cells transfected with human mGluR4, Ca2+-sensitive fluorescent dye, EC20 agonist). Conditions: potentiation of mGluR4; table does not state human or rat receptor.
Type: cell-based
Method: The disclosed compounds and compositions can be evaluated for their ability to act as a potentiator of metabotropic glutamate receptor activity, in particular mGluR4 activity, by any suitable known methodology known in the art. For example, Chinese Hamster Ovary (CHO) cells transfected with human mGluR4 or HEK cells co-transfected with rat mGluR4 and the G-protein regulated Inwardly Rectifying Potassium channel (GIRK) were plated in clear bottom assay plates for assay in a Hamamatsu FDSS Fluorometric Plate Reader. The cells were loaded with either a Ca2+-sensitive fluorescent dye or the thallium responsive dye and the plates were washed and placed into a suitable kinetic plate reader. For human mGluR4 assays, a fluorescence baseline was established for 3-5 seconds, the disclosed compounds were then added to the cells, and the response in cells was measured. Approximately two and a half minutes later, a concentration of mGluR4 orthosteric agonist (e.g. glutamate or L-AP4) eliciting approximately 20% (EC20) of the maximal agonist response was added to the cells, and the response was measured. Two minutes later, a concentration of mGluR4 agonist (e.g. glutamate or L-AP4) eliciting 80% (EC80) of the maximal agonist response was added to the cells, and the response was measured. For rat mGluR4/GIRK experiments, a baseline was established for approximately five seconds, disclosed compounds were added, and either an EC20 or EC80 concentration of agonist was added approximately two and one half minutes later.
The above described assay operated in two modes. In the first mode, a range of concentrations of the disclosed compounds are added to cells, followed by a single fixed concentration of agonist. If the compound acts as a potentiatior, an EC50 value for potentiation and a maximum extent of potentiation by the compound at this concentration of agonist is determined by non-linear curve fitting. If the compound acts as a noncompetitive antagonist, an IC50 value is determined by non-linear curve fitting. In the second mode, several fixed concentrations of the disclosed compounds are added to various wells on a plate, followed by a range in concentrations of agonist for each concentration of disclosed compound. The EC50 values for the agonist at each concentration of compound are determined by non-linear curve fitting. A decrease in the EC50 value of the agonist with increasing concentrations of the sample compound (a leftward shift of the agonist concentration-response curve) is an indication of the degree of mGluR4 potentiation at a given concentration of the sample compound. A decrease in the maximal response of the agonist with increasing concentrations of the sample compounds, with or without a rightward shift in agonist potency, is an indication of the degree of noncompetitive antagonism at mGluR4. The second mode also indicates whether the sample compounds also affect the maximum response to mGluR4 to agonists.

Chain of human mGluR4 (Q14833 33-912): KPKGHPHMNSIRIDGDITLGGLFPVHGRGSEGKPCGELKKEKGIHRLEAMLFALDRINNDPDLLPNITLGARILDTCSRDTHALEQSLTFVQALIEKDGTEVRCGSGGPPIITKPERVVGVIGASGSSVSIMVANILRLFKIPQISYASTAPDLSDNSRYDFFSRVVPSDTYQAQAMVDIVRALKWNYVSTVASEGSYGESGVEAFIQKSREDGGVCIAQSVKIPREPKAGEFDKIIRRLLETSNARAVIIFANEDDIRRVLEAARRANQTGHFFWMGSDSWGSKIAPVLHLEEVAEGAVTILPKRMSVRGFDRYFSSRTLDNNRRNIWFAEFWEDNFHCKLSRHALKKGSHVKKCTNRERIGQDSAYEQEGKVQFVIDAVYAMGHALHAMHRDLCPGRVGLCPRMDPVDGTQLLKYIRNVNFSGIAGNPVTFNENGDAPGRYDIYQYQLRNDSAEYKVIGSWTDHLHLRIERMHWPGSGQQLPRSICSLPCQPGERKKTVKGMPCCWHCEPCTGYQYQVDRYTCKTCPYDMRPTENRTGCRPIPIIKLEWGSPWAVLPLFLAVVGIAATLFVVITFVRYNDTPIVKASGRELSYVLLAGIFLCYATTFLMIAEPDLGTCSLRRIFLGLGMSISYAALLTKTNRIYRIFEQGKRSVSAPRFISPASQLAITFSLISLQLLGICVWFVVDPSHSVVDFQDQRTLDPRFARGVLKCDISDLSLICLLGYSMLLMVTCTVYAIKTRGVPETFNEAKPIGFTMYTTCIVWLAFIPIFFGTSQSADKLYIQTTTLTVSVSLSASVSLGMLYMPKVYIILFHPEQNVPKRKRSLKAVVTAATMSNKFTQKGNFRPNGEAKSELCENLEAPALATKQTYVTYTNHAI

EC50 | Structure (SMILES)
1020 nM | Clc1cc(Nc2n[nH]c3cccnc23)cnc1Cl [Example 47, N-(5,6-dichloropyridin-3-yl)-1H-pyrazolo[4,3-b]pyridin-3-amine]
6440 nM | CNc1ncc(Nc2n[nH]c3cccnc23)cc1Cl [Example 48, 3-chloro-N2-methyl-N5-(1H-pyrazolo[4,3-b]pyridin-3-yl)pyridine-2,5-diamine]
17300 nM | Clc1cccc(CNc2n[nH]c3cccnc23)c1 [Example 50, N-(3-chlorobenzyl)-1H-pyrazolo[4,3-b]pyridin-3-amine]
7080 nM | Fc1ccc(CNc2n[nH]c3cccnc23)cc1Cl [Example 51, N-(3-chloro-4-fluorobenzyl)-1H-pyrazolo[4,3-b]pyridin-3-amine]
7860 nM | CS(=O)(=O)c1ccc(Nc2n[nH]c3cccnc23)cc1Cl [Example 56, N-(3-chloro-4-(methylsulfonyl)phenyl)-1H-pyrazolo[4,3-b]pyridin-3-amine]
2580 nM | CCc1cccc(Nc2n[nH]c3cccnc23)c1 [Example 60, N-(3-ethylphenyl)-1H-pyrazolo[4,3-b]pyridin-3-amine]
217 nM | Fc1cc(Nc2n[nH]c3cccnc23)cc(C(F)(F)F)c1 [Example 62, N-(3-fluoro-5-(trifluoromethyl)phenyl)-1H-pyrazolo[4,3-b]pyridin-3-amine]
1420 nM | Fc1ccc(Nc2n[nH]c3cccnc23)cc1 [Example 65, N-(4-fluorophenyl)-1H-pyrazolo[4,3-b]pyridin-3-amine]
3050 nM | FC(F)(F)c1cc(Nc2n[nH]c3cccnc23)cc(C(F)(F)F)c1 [Example 67, N-(3,5-bis(trifluoromethyl)phenyl)-1H-pyrazolo[4,3-b]pyridin-3-amine]
113 nM | Clc1ccc(Nc2n[nH]c3cccnc23)cc1Cl [Example 68, N-(3,4-dichlorophenyl)-1H-pyrazolo[4,3-b]pyridin-3-amine]
43 nM | Clc1cc(Cl)cc(Nc2n[nH]c3cccnc23)c1 [Example 69, N-(3,5-dichlorophenyl)-1H-pyrazolo[4,3-b]pyridin-3-amine]
32 nM | Fc1cc(Cl)cc(Nc2n[nH]c3cccnc23)c1 [Example 70, N-(3-chloro-5-fluorophenyl)-1H-pyrazolo[4,3-b]pyridin-3-amine]
385 nM | Fc1ccc(Nc2n[nH]c3cccnc23)cc1C(F)(F)F [Example 71, N-(4-fluoro-3-(trifluoromethyl)phenyl)-1H-pyrazolo[4,3-b]pyridin-3-amine]
9100 nM | CS(=O)(=O)c1cc(Nc2n[nH]c3cccnc23)ccc1F [Example 72, N-(4-fluoro-3-(methylsulfonyl)phenyl)-1H-pyrazolo[4,3-b]pyridin-3-amine]
349 nM | Oc1ccc(Nc2n[nH]c3cccnc23)cc1F [Example 73, 4-((1H-pyrazolo[4,3-b]pyridin-3-yl)amino)-2-fluorophenol]
410 nM | Cc1ccc(Cl)cc1Nc1n[nH]c2cccnc12 [Example 78, N-(5-chloro-2-methylphenyl)-1H-pyrazolo[4,3-b]pyridin-3-amine]
342 nM | Fc1cc(F)c(Nc2n[nH]c3cccnc23)cc1Cl [Example 79, N-(5-chloro-2,4-difluorophenyl)-1H-pyrazolo[4,3-b]pyridin-3-amine]
146 nM | Fc1cc(Nc2n[nH]c3cccnc23)cc(F)c1F [Example 80, N-(3,4,5-trifluorophenyl)-1H-pyrazolo[4,3-b]pyridin-3-amine]
1540 nM | Clc1ccc(Oc2ccc(Nc3n[nH]c4cccnc34)cc2Cl)cc1 [Example 81, N-(3-chloro-4-(4-chlorophenoxy)phenyl)-1H-pyrazolo[4,3-b]pyridin-3-amine]
68 nM | Cc1cc(Nc2n[nH]c3cccnc23)ccc1F [Example 82, N-(4-fluoro-3-methylphenyl)-1H-pyrazolo[4,3-b]pyridin-3-amine]
165 nM | Cc1ccc(Nc2n[nH]c3cccnc23)cc1Cl [Example 83, N-(3-chloro-4-methylphenyl)-1H-pyrazolo[4,3-b]pyridin-3-amine]
314 nM | Cc1ccc(F)c(Nc2n[nH]c3cccnc23)c1 [Example 84, N-(2-fluoro-5-methylphenyl)-1H-pyrazolo[4,3-b]pyridin-3-amine]
101 nM | Fc1cc(F)cc(Nc2n[nH]c3cccnc23)c1 [Example 85, N-(3,5-difluorophenyl)-1H-pyrazolo[4,3-b]pyridin-3-amine]

Further lines, the molecule ahead of its results:

Structure (SMILES) | EC50
c1cnc2c(NCC3CCCCC3)n[nH]c2c1 [Example 49, N-(cyclohexylmethyl)-1H-pyrazolo[4,3-b]pyridin-3-amine] | 5300 nM
Clc1cc(Nc2n[nH]c3cccnc23)ccc1Oc1ccccn1 [Example 52, N-(3-chloro-4-(pyridin-2-yloxy)phenyl)-1H-pyrazolo[4,3-b]pyridin-3-amine] | 112 nM
Cn1ccc2ccc(Nc3n[nH]c4cccnc34)cc21 [Example 53, N-(1-methyl-1H-indol-6-yl)-1H-pyrazolo[4,3-b]pyridin-3-amine] | 3590 nM
CN1C(=O)COc2cc(Nc3n[nH]c4cccnc34)ccc21 [Example 54, 7-((1H-pyrazolo[4,3-b]pyridin-3-yl)amino)-4-methyl-2H-benzo[b][1,4]oxazin-3(4H)-one] | > 10000 nM
CN1C(=O)COc2ccc(Nc3n[nH]c4cccnc34)cc21 [Example 55, 6-((1H-pyrazolo[4,3-b]pyridin-3-yl)amino)-4-methyl-2H-benzo[b][1,4]oxazin-3(4H)-one] | 8140 nM
Fc1cc(F)c(F)c(Nc2n[nH]c3cccnc23)c1 [Example 57, N-(2,3,5-trifluorophenyl)-1H-pyrazolo[4,3-b]pyridin-3-amine] | 782 nM
CS(=O)(=O)c1ccc(Nc2n[nH]c3cccnc23)cc1F [Example 58, N-(3-fluoro-4-(methylsulfonyl)phenyl)-1H-pyrazolo[4,3-b]pyridin-3-amine] | 11500 nM
Cn1nc2cccnc2c1Nc1ccc(F)c(Cl)c1 [Example 59, N-(3-chloro-4-fluorophenyl)-2-methyl-2H-pyrazolo[4,3-b]pyridin-3-amine] | 11900 nM
CC(C)(C)c1cccc(Nc2n[nH]c3cccnc23)c1 [Example 61, N-(3-(tert-butyl)phenyl)-1H-pyrazolo[4,3-b]pyridin-3-amine] | 7930 nM
CC1Oc2ccc(Nc3n[nH]c4cccnc34)cc2N(C)C1=O (stereo not drawn) [Example 63, 6-((1H-pyrazolo[4,3-b]pyridin-3-yl)amino)-2,4-dimethyl-2H-benzo[b][1,4]oxazin-3(4H)-one] | 8340 nM
O=C(c1ccccc1)c1ccc(Nc2n[nH]c3cccnc23)cc1Cl [Example 64, (4-((1H-pyrazolo[4,3-b]pyridin-3-yl)amino)-2-chlorophenyl)(phenyl)methanone] | 351 nM
Clc1cc(Nc2n[nH]c3cccnc23)ccc1Oc1cnccn1 [Example 66, N-(3-chloro-4-(pyrazin-2-yloxy)phenyl)-1H-pyrazolo[4,3-b]pyridin-3-amine] | 108 nM
Fc1cc(Nc2n[nH]c3cccnc23)ccc1Oc1ncccn1 [Example 74, N-(3-fluoro-4-(pyrimidin-2-yloxy)phenyl)-1H-pyrazolo[4,3-b]pyridin-3-amine] | 2760 nM
Fc1cc(Nc2n[nH]c3cccnc23)ccc1Oc1cc(C(F)(F)F)ccn1 [Example 75, N-(3-fluoro-4-((4-(trifluoromethyl)pyridin-2-yl)oxy)phenyl)-1H-pyrazolo[4,3-b]pyridin-3-amine] | 497 nM
Fc1cc(Nc2n[nH]c3cccnc23)ccc1Oc1ccc(Cl)cn1 [Example 76, N-(4-((5-chloropyridin-2-yl)oxy)-3-fluorophenyl)-1H-pyrazolo[4,3-b]pyridin-3-amine] | 151 nM
Clc1cccc(Oc2ccc(Nc3n[nH]c4cccnc34)cc2Cl)n1 [Example 77, N-(3-chloro-4-((6-chloropyridin-2-yl)oxy)phenyl)-1H-pyrazolo[4,3-b]pyridin-3-amine] | 88 nM
CN(c1cccc(Cl)c1)c1n[nH]c2cccnc12 [Example 86, N-(3-chlorophenyl)-N-methyl-1H-pyrazolo[4,3-b]pyridin-3-amine] | 8010 nM
Clc1cc(Nc2n[nH]c3cccnc23)ccc1OCc1ccccc1 [Example 87, N-(4-(benzyloxy)-3-chlorophenyl)-1H-pyrazolo[4,3-b]pyridin-3-amine] | 426 nM
O=C(c1ccccc1F)c1ccc(Nc2n[nH]c3cccnc23)cc1Cl [Example 88, (4-((1H-pyrazolo[4,3-b]pyridin-3-yl)amino)-2-chlorophenyl)(2-fluorophenyl)methanone] | 311 nM
